According to ChEMBL document CHEMBL1137017, “In vitro antiviral activity and cross-resistance profile of PL-100, a novel protease inhibitor of human immunodeficiency virus type 1” (Antimicrob Agents Chemother, 2007):

Experiments:
[1] = system: Human immunodeficiency virus 1; assay: Resistance index, ratio of EC50 for HIV1 with protease 46I/50L/54V/82A mutation to EC50 for wild type HIV1 NL4-3 in HEK293 cells after 48 hrs by replication-deffective luciferase reporter gene-based phenotypic assay; format: functional
[2] = system: Human immunodeficiency virus 1; assay: Resistance index, ratio of EC50 for HIV1 with protease 33I/46I/84V/90M mutation to EC50 for wild type HIV1 NL4-3 in HEK293 cells after 48 hrs by replication-deffective luciferase reporter gene-based phenotypic assay; format: functional
[3] = system: Human immunodeficiency virus 1; assay: Resistance index, ratio of EC50 for HIV1 with protease 37T/41K/70E mutation to EC50 for wild type HIV1 NL4-3 in HEK293 cells after 48 hrs by replication-deffective luciferase reporter gene-based phenotypic assay; format: functional
[4] = system: Human immunodeficiency virus 1; assay: Resistance index, ratio of EC50 for HIV1 with protease 46I/53L/82T/90M mutation to EC50 for wild type HIV1 NL4-3 in HEK293 cells after 48 hrs by replication-deffective luciferase reporter gene-based phenotypic assay; format: functional
[5] = system: Human immunodeficiency virus 1; assay: Resistance index, ratio of EC50 for HIV1 with protease 54V/84V mutation to EC50 for wild type HIV1 NL4-3 in HEK293 cells after 48 hrs by replication-deffective luciferase reporter gene-based phenotypic assay; format: functional
[6] = system: Human immunodeficiency virus 1; assay: Resistance index, ratio of EC50 for HIV1 with protease 46L mutation to EC50 for wild type HIV1 NL4-3 in HEK293 cells after 48 hrs by replication-deffective luciferase reporter gene-based phenotypic assay; format: functional
[7] = system: Human immunodeficiency virus 1; assay: Resistance index, ratio of EC50 for HIV1 with protease 46I mutation to EC50 for wild type HIV1 NL4-3 in HEK293 cells after 48 hrs by replication-deffective luciferase reporter gene-based phenotypic assay; format: functional
[8] = system: Human immunodeficiency virus 1; assay: Resistance index, ratio of EC50 for HIV1 with protease 46I/50V/54V mutation to EC50 for wild type HIV1 NL4-3 in HEK293 cells after 48 hrs by replication-deffective luciferase reporter gene-based phenotypic assay; format: functional
[9] = target: Protease (Human immunodeficiency virus 1, UniProt Q9YQ12); assay: Inhibition of HIV1 protease
Sequence of Protease (Q9YQ12 whole entry): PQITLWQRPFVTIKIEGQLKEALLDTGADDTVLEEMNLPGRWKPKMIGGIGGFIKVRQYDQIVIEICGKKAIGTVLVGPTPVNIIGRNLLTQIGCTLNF

[10] = system: Human immunodeficiency virus 1; assay: Antiviral activity against wild type HIV1 NL4-3 infected in MT4 cells after 6 days by MTT assay; format: functional, organism-based; conditions: Human immunodeficiency virus 1, NL4-3, MT4, 144 h
[11] = Selectivity index, ratio of CC50 for human MT4 cells to EC50 for HIV1 NL4-3; format: toxicity, cell-based; conditions: read-out: Ratio CC50/EC50
[12] = system: Human immunodeficiency virus 1; assay: Antiviral activity against wild type HIV1 NL4-3 in HEK293 cells after 48 hrs by replication-deffective luciferase reporter gene-based phenotypic assay; format: functional, organism-based; conditions: Human immunodeficiency virus 1, NL4-3, HEK293, 48 h
[13] = system: Human immunodeficiency virus 1; assay: Resistance index, ratio of EC50 for HIV1 with protease 54V/82A/84V/90M mutation to EC50 for wild type HIV1 NL4-3 in HEK293 cells after 48 hrs by replication-deffective luciferase reporter gene-based phenotypic assay; format: functional
[14] = system: Human immunodeficiency virus 1; assay: Resistance index, ratio of EC50 for HIV1 with protease 46I/82T/84V/90M mutation to EC50 for wild type HIV1 NL4-3 in HEK293 cells after 48 hrs by replication-deffective luciferase reporter gene-based phenotypic assay; format: functional
[15] = system: Human immunodeficiency virus 1; assay: Resistance index, ratio of EC50 for HIV1 with protease 48V/54V/82A/90M mutation to EC50 for wild type HIV1 NL4-3 in HEK293 cells after 48 hrs by replication-deffective luciferase reporter gene-based phenotypic assay; format: functional
[16] = system: Human immunodeficiency virus 1; assay: Resistance index, ratio of EC50 for non-B type HIV1 with protease 46I/47V/84V mutation to EC50 for wild type HIV1 NL4-3 in HEK293 cells after 48 hrs by replication-deffective luciferase reporter gene-based phenotypic assay; format: functional
[17] = system: Human immunodeficiency virus 1; assay: Resistance index, ratio of EC50 for HIV1 with protease 46I/47A/84V mutation to EC50 for wild type HIV1 NL4-3 in HEK293 cells after 48 hrs by replication-deffective luciferase reporter gene-based phenotypic assay; format: functional
[18] = system: Human immunodeficiency virus 1; assay: Resistance index, ratio of EC50 for HIV1 with protease 33F/46I/84V/88D/90M mutation to EC50 for wild type HIV1 NL4-3 in HEK293 cells after 48 hrs by replication-deffective luciferase reporter gene-based phenotypic assay; format: functional
[19] = system: Human immunodeficiency virus 1; assay: Resistance index, ratio of EC50 for HIV1 with protease 30N/33F/46L/54L/84V/88D mutation to EC50 for wild type HIV1 NL4-3 in HEK293 cells after 48 hrs by replication-deffective luciferase reporter gene-based phenotypic assay; format: functional
[20] = system: Human immunodeficiency virus 1; assay: Resistance index, ratio of EC50 for HIV1 with protease 33F/54L/82A/90M mutation to EC50 for wild type HIV1 NL4-3 in HEK293 cells after 48 hrs by replication-deffective luciferase reporter gene-based phenotypic assay; format: functional
[21] = system: Human immunodeficiency virus 1; assay: Resistance index, ratio of EC50 for HIV1 with protease 33F/54V/73S/82A/90M mutation to EC50 for wild type HIV1 NL4-3 in HEK293 cells after 48 hrs by replication-deffective luciferase reporter gene-based phenotypic assay; format: functional
[22] = system: Human immunodeficiency virus 1; assay: Resistance index, ratio of EC50 for HIV1 with protease 32I/46L/47V/84V mutation to EC50 for wild type HIV1 NL4-3 in HEK293 cells after 48 hrs by replication-deffective luciferase reporter gene-based phenotypic assay; format: functional
[23] = system: Human immunodeficiency virus 1; assay: Resistance index, ratio of EC50 for HIV1 with protease 33F/54L/82A/84V mutation to EC50 for wild type HIV1 NL4-3 in HEK293 cells after 48 hrs by replication-deffective luciferase reporter gene-based phenotypic assay; format: functional
[24] = system: Human immunodeficiency virus 1; assay: Resistance index, ratio of EC50 for HIV1 with protease 33F/46L/53L/54V/82A mutation to EC50 for wild type HIV1 NL4-3 in HEK293 cells after 48 hrs by replication-deffective luciferase reporter gene-based phenotypic assay; format: functional
[25] = system: Human immunodeficiency virus 1; assay: Resistance index, ratio of EC50 for HIV1 with protease 46L/54V/82A/90M mutation to EC50 for wild type HIV1 NL4-3 in HEK293 cells after 48 hrs by replication-deffective luciferase reporter gene-based phenotypic assay; format: functional
[26] = system: Human immunodeficiency virus 1; assay: Resistance index, ratio of EC50 for HIV1 with protease 46L/54V/73C/84V/90M mutation to EC50 for wild type HIV1 NL4-3 in HEK293 cells after 48 hrs by replication-deffective luciferase reporter gene-based phenotypic assay; format: functional
[27] = system: Human immunodeficiency virus 1; assay: Resistance index, ratio of EC50 for HIV1 with protease 33F/54V/82A/84V/90M mutation to EC50 for wild type HIV1 NL4-3 in HEK293 cells after 48 hrs by replication-deffective luciferase reporter gene-based phenotypic assay; format: functional
[28] = system: Human immunodeficiency virus 1; assay: Resistance index, ratio of EC50 for HIV1 with protease 48V/82A/84V/90M mutation to EC50 for wild type HIV1 NL4-3 in HEK293 cells after 48 hrs by replication-deffective luciferase reporter gene-based phenotypic assay; format: functional
[29] = system: Human immunodeficiency virus 1; assay: Resistance index, ratio of EC50 for HIV1 with protease 46L/48V/82A/84V mutation to EC50 for wild type HIV1 NL4-3 in HEK293 cells after 48 hrs by replication-deffective luciferase reporter gene-based phenotypic assay; format: functional

| SMILES | Ratio EC50 [1] | Ratio EC50 [2] | Ratio EC50 [3] | Ratio EC50 [4] | Ratio EC50 [5] | Ratio EC50 [6] | Ratio EC50 [7] | Ratio EC50 [8] | Ki [9] | EC50 [10] | selectivity ratio [11] | EC50 [12] | Ratio EC50 [13] | Ratio EC50 [14] | Ratio EC50 [15] | Ratio EC50 [16] | Ratio EC50 [17] | Ratio EC50 [18] | Ratio EC50 [19] | Ratio EC50 [20] | also measured |
| --- | --- | --- | --- | --- | --- | --- | --- | --- | --- | --- | --- | --- | --- | --- | --- | --- | --- | --- | --- | --- | --- |
| Cc1c(O)cccc1C(=O)N[C@@H](CSc1ccccc1)[C@H](O)CN1C[C@H]2CCCC[C@H]2C[C@H]1C(=O)NC(C)(C)C | 14 | 28.5 | 1.9 | 32.9 | 15 | 1.7 | 1.6 | 12.7 | 0.306 nM | 29 nM | 276 | 5.8 nM | 33.1 | 27.1 | 25.4 | 5.1 | 10.4 | 10 | 400 | 10.4 | Ratio EC50 [21]: 20; Ratio EC50 [22]: 7.8; Ratio EC50 [23]: 17.2; Ratio EC50 [24]: 28.3; Ratio EC50 [25]: 14.1; Ratio EC50 [26]: 82.6; Ratio EC50 [27]: 21.1; Ratio EC50 [28]: 27.3; Ratio EC50 [29]: 5.9 |
| COC(=O)N[C@H](C(=O)N[C@@H](Cc1ccccc1)[C@@H](O)CN(Cc1ccc(-c2ccccn2)cc1)NC(=O)[C@@H](NC(=O)OC)C(C)(C)C)C(C)(C)C [ATAZANAVIR] | 67.5 | 7.5 | 1.5 | 33.7 | 8.3 | 0.9 | 0.7 | 2.4 | 0.039 nM | 4 nM | 17800 | 1.5 nM | 50.5 | 32 | 28 | 7.1 | 9.5 | 14.7 | 66.1 | 7.5 | Ratio EC50 [21]: 11.9; Ratio EC50 [22]: 25; Ratio EC50 [23]: 44.5; Ratio EC50 [24]: 22.7; Ratio EC50 [25]: 11.8; Ratio EC50 [26]: 55.2; Ratio EC50 [27]: 24.7; Ratio EC50 [28]: 57.7; Ratio EC50 [29]: 21.5 |
| COC(=O)N[C@H](C(=O)NCCCC[C@@H](CO)N(CC(C)C)S(=O)(=O)c1ccc(N)cc1)C(c1ccccc1)c1ccccc1 [PPL-100] | 4 | 3.4 | 1.9 | 8.3 | 0.8 | 1.1 | 1.5 | 0.5 | 0.036 nM | 16 nM | 2310 | 5.3 nM | 7 | 4.8 | 1.1 | 4.3 | 14.8 | 5.6 | 23.2 | 30.3 | Ratio EC50 [21]: 5.3; Ratio EC50 [22]: 0.6; Ratio EC50 [23]: 31.2; Ratio EC50 [24]: 5.5; Ratio EC50 [25]: 3.2; Ratio EC50 [26]: 10.8; Ratio EC50 [27]: 9.6; Ratio EC50 [28]: 13.5; Ratio EC50 [29]: 1.2 |
